# In ChEMBL document CHEMBL1201862, “PubChem BioAssay data set” (2004):
#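 Growth conditions: 96-well plates. Treatment: test compound, 48 hours, 5 concentrations. Analysis: linear interpolation between bracketing concentrations; unreached endpoints set to highest concentration. GI50 = concentration required for 50% inhibition of growth.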 The source made the active and inactive calls. Rule as the data show it: active = GI50 up to about 1.1 µM and inactive = higher.
# How the values were obtained:
# Test in all cases: NCI-60 cell line screen, 48 h
# 786-0 = tested on: 786-0
# A498 = tested on: A498
# A549 = tested on: A549
# ACHN = tested on: ACHN
# CAKI-1 = tested on: CAKI-1
# CCRF-CEM = tested on: CCRF-CEM
# COLO 205 = tested on: COLO 205
# DLD-1 = tested on: DLD-1
# DMS-114 = tested on: DMS-114
# EKVX = tested on: EKVX
# HCC 2998 = tested on: HCC 2998
# HCT-116 = tested on: HCT-116
# HCT-15 = tested on: HCT-15
# HL-60 = tested on: HL-60
# HOP-18 = tested on: HOP-18
# HOP-62 = tested on: HOP-62
# HOP-92 = tested on: HOP-92
# HT-29 = tested on: HT-29
# IGROV-1 = tested on: IGROV-1
# K562 = tested on: K562
# KM-20L2 = tested on: KM-20L2
# KM12 = tested on: KM12
# LOX IMVI = tested on: LOX IMVI
# LXFL 529 = tested on: LXFL 529
# M14 = tested on: M14
# M19-MEL = tested on: M19-MEL
# MOLT-4 = tested on: MOLT-4
# Malme-3M = tested on: Malme-3M
# NCI-H226 = tested on: NCI-H226
# NCI-H23 = tested on: NCI-H23
# NCI-H460 = tested on: NCI-H460
# NCI-H522 = tested on: NCI-H522
# OVCAR-3 = tested on: OVCAR-3
# OVCAR-5 = tested on: OVCAR-5
# OVCAR-8 = tested on: OVCAR-8
# RPMI-8226 = tested on: RPMI-8226
# RXF 393 = tested on: RXF 393
# SF-268 = tested on: SF-268
# SF-295 = tested on: SF-295
# SF-539 = tested on: SF-539
# SK-MEL-28 = tested on: SK-MEL-28
# SK-MEL-5 = tested on: SK-MEL-5
# SK-OV-3 = tested on: SK-OV-3
# SN12C = tested on: SN12C
# SNB-19 = tested on: SNB-19
# SNB-75 = tested on: SNB-75
# SR = tested on: SR
# SW-620 = tested on: SW-620
# TK-10 = tested on: TK-10
# U-251 = tested on: U-251
# UACC-257 = tested on: UACC-257
# UACC-62 = tested on: UACC-62
# UO-31 = tested on: UO-31
# XF498 = tested on: XF498
# DMS-273 = tested on: DMS-273
# OVCAR-4 = tested on: OVCAR-4
# SK-MEL-2 = tested on: SK-MEL-2
# SNB-78 = tested on: SNB-78
structure (smiles),measurement,setting,value
Cc1cccc(C)c1NC(=O)CCC(=O)NNC(=O)c1cc(O)c2ccccc2c1,GI50,786-0,38 µM (inactive)
same,GI50,A498,0.344 µM (active)
same,GI50,A549,64.7 µM (inactive)
same,GI50,ACHN,37.2 µM (inactive)
same,GI50,CAKI-1,31.8 µM (inactive)
same,GI50,CCRF-CEM,12.2 µM (inactive)
same,GI50,COLO 205,18.7 µM (inactive)
same,GI50,DLD-1,34.9 µM (inactive)
same,GI50,DMS-114,21.8 µM (inactive)
same,GI50,EKVX,42.3 µM (inactive)
same,GI50,HCC 2998,51.9 µM (inactive)
same,GI50,HCT-116,31.9 µM (inactive)
same,GI50,HCT-15,25.3 µM
same,GI50,HL-60,27.8 µM (inactive)
same,GI50,HOP-18,11.6 µM (inactive)
same,GI50,HOP-62,37.9 µM (inactive)
same,GI50,HOP-92,> 100 µM (inactive)
same,GI50,HT-29,58.3 µM (inactive)
same,GI50,IGROV-1,30.4 µM (inactive)
same,GI50,K562,23 µM (inactive)
same,GI50,KM-20L2,34.4 µM (inactive)
same,GI50,KM12,99.1 µM (inactive)
same,GI50,LOX IMVI,25.1 µM (inactive)
same,GI50,LXFL 529,29.6 µM (inactive)
same,GI50,M14,31.4 µM (inactive)
same,GI50,M19-MEL,35.2 µM (inactive)
same,GI50,MOLT-4,19.5 µM (inactive)
same,GI50,Malme-3M,72.1 µM (inactive)
same,GI50,NCI-H226,> 100 µM (inactive)
same,GI50,NCI-H23,26.3 µM (inactive)
same,GI50,NCI-H460,27.6 µM (inactive)
same,GI50,NCI-H522,26.3 µM (inactive)
same,GI50,OVCAR-3,24.8 µM (inactive)
same,GI50,OVCAR-5,32.7 µM (inactive)
same,GI50,OVCAR-8,20.7 µM (inactive)
same,GI50,RPMI-8226,56.8 µM (inactive)
same,GI50,RXF 393,5.35 µM (inactive)
same,GI50,SF-268,27.6 µM (inactive)
same,GI50,SF-295,24 µM (inactive)
same,GI50,SF-539,27.9 µM (inactive)
same,GI50,SK-MEL-28,44.8 µM (inactive)
same,GI50,SK-MEL-5,32.3 µM (inactive)
same,GI50,SK-OV-3,97.9 µM (inactive)
same,GI50,SN12C,78.7 µM (inactive)
same,GI50,SNB-19,23.9 µM (inactive)
same,GI50,SNB-75,> 100 µM (inactive)
same,GI50,SR,28.2 µM (inactive)
same,GI50,SW-620,40 µM (inactive)
same,GI50,TK-10,70.1 µM (inactive)
same,GI50,U-251,48.8 µM (inactive)
same,GI50,UACC-257,44.5 µM (inactive)
same,GI50,UACC-62,25.6 µM (inactive)
same,GI50,UO-31,32.1 µM (inactive)
same,GI50,XF498,50.6 µM (inactive)
CCC(C)(O)c1cn(-c2ccc(Cl)cc2)nn1 (stereo not given),GI50,786-0,> 100 µM (inactive)
same,GI50,A498,> 100 µM (inactive)
same,GI50,A549,> 100 µM (inactive)
same,GI50,ACHN,> 100 µM (inactive)
same,GI50,CAKI-1,> 100 µM (inactive)
same,GI50,CCRF-CEM,> 100 µM (inactive)
same,GI50,COLO 205,> 100 µM (inactive)
same,GI50,DLD-1,> 100 µM (inactive)
same,GI50,DMS-273,> 100 µM (inactive)
same,GI50,EKVX,> 100 µM (inactive)
same,GI50,HCC 2998,> 100 µM (inactive)
same,GI50,HCT-116,> 100 µM (inactive)
same,GI50,HCT-15,> 100 µM
same,GI50,HL-60,> 100 µM (inactive)
same,GI50,HOP-18,> 100 µM (inactive)
same,GI50,HOP-62,> 100 µM (inactive)
same,GI50,HOP-92,> 100 µM (inactive)
same,GI50,HT-29,> 100 µM (inactive)
same,GI50,IGROV-1,> 100 µM (inactive)
same,GI50,K562,> 100 µM (inactive)
same,GI50,KM-20L2,> 100 µM (inactive)
same,GI50,KM12,> 100 µM (inactive)
same,GI50,LOX IMVI,> 100 µM (inactive)
same,GI50,LXFL 529,> 100 µM (inactive)
same,GI50,M14,> 100 µM (inactive)
same,GI50,M19-MEL,> 100 µM (inactive)
same,GI50,MOLT-4,> 100 µM (inactive)
same,GI50,Malme-3M,> 100 µM (inactive)
same,GI50,NCI-H226,> 100 µM (inactive)
same,GI50,NCI-H23,> 100 µM (inactive)
same,GI50,NCI-H460,> 100 µM (inactive)
same,GI50,NCI-H522,> 100 µM (inactive)
same,GI50,OVCAR-3,> 100 µM (inactive)
same,GI50,OVCAR-4,> 100 µM (inactive)
same,GI50,OVCAR-5,> 100 µM (inactive)
same,GI50,OVCAR-8,> 100 µM (inactive)
same,GI50,RPMI-8226,> 100 µM (inactive)
same,GI50,RXF 393,> 100 µM (inactive)
same,GI50,SF-268,> 100 µM (inactive)
same,GI50,SF-295,> 100 µM (inactive)
same,GI50,SF-539,> 100 µM (inactive)
same,GI50,SK-MEL-28,> 100 µM (inactive)
same,GI50,SK-MEL-2,> 100 µM (inactive)
same,GI50,SK-MEL-5,> 100 µM (inactive)
same,GI50,SK-OV-3,> 100 µM (inactive)
same,GI50,SN12C,> 100 µM (inactive)
same,GI50,SNB-19,> 100 µM (inactive)
same,GI50,SNB-75,> 100 µM (inactive)
same,GI50,SNB-78,> 100 µM (inactive)
same,GI50,SR,> 100 µM (inactive)
same,GI50,SW-620,> 100 µM (inactive)
same,GI50,TK-10,> 100 µM (inactive)
same,GI50,U-251,> 100 µM (inactive)
same,GI50,UACC-257,> 100 µM (inactive)
same,GI50,UACC-62,> 100 µM (inactive)
same,GI50,UO-31,> 100 µM (inactive)
